For data set [1] the following is noted: cited from earlier work.
Data set [2] in a line: Sensory evaluation by experienced tasters in unsweetened black tea (Example 5, Test A). The format is in vivo, human. Particulars: about 200 ppm in tea. Here is the method: (§1) Glycoside samples (SG101-104) were isolated and purified from fermentation broth, purified Rebs A, B, and D are of leaf origin and Reb M is chemically synthesized. All samples were dissolved in reverse osmosis water at the concentrations indicated. Unsweetened black tea was used in one set of experiments. Approximately 2-3 milliliters of each solution was tasted and sensory evaluations conducted by two to three experienced tasters. Test A

Data set [3] in a line: Sweetness time intensity (TI) profile in water, SG composition Lot B versus RebM. It counts as in vivo, human. The settings on record: sweetness TI in water vs RebM. The procedure: Comparison of SG composition Lot B and RebM using TI for sweet.
Training: Descriptive panelists, who are highly trained and experienced on-call taste panelists, had four training sessions. They trained with sucrose references. Then they practiced scoring the samples using the scale on the ballot using a time intensity scale.
Testing: There was at least a 10 minute break in between samples. They were provided with filtered water, sparkling water, carrots, unsalted rice crackers and unsalted saltine crackers during break only. All samples were evaluated in a balanced sequential order one at a time. Panelists swallowed the sample at 10 seconds.
Serving Size/Container: 15 g in a 2 oz cup Serving Temp Room temperature
Sweetness Results (12 panelists; 3 replicates)

Data set [4] can be described thus: Instantaneous solubility: vigorous mixing with deionized water for 10 minutes at room temperature. The format is physicochemical. Particulars: for concentration of the rebaudioside in the instantaneously soluble 0.37% solution of the fermentation composition: room temperature water; for instantaneous solubility: water, room temperature. Set-up: key to instantaneous solubility at stated concentration: Clear solutions without precipitates are considered soluble. Here is the method: The composition can optionally be expressed in terms of the concentration of one or more steviol glycoside(s). […] Clear solutions without precipitates are considered soluble. Unless indicated otherwise herein, the term “solubility” refers to “equilibrium solubility.”
Instantaneous solubility is determined by mixing steviol glycoisde with deionized water vigorously for 10 minutes at room temperature. […] Clear solutions without precipitates are considered soluble.

The conditions of data set [5]: in vivo; cited from earlier work.
Data set [6] can be described thus: Equilibrium solubility: heating in deionized water at 80° C. for 15 minutes, cooling to room temperature, observation up to 4 days. It counts as physicochemical. Set-up: key to equilibrium solubility at stated concentration: Clear solutions without precipitates are considered soluble. The settings on record: for equilibrium solubility: after 80° C. for 15 minutes, at room temperature, up to 4 days. The text has this: The composition can optionally be expressed in terms of the concentration of one or more steviol glycoside(s). […] Clear solutions without precipitates are considered soluble. Unless indicated otherwise herein, the term “solubility” refers to “equilibrium solubility.” […]

Data set [7] is described as follows: Sensory evaluation by two to three experienced tasters, solutions in reverse osmosis water (Example 5, Tests A and B). It counts as in vivo, human. The procedure:
as §1
As used herein, “sucrosey” means having a flavor profile, a sweetness profile, or a flavor profile and a sweetness pofile more similar to that of sucrose.

The nature of data set [8]: SEV measurement by trained sensory panel in citric acid buffer at pH=3.0. The format is in vivo, human. Particulars: for SEV: citric acid buffer pH=3.0; for Sucrose equivalent value / relative sweetness scale- sucrose = 1: 250 ppm in citric buffer, pH = 3.0. The text has this: Sweetness may be determined by measuring sucrose equivalent values (SEV) using methods and processes well known to those skilled in the art. For example, SEV may be determined by measuring sweetness equivalence to a reference sucrose solution. Typically, taste panelists are trained to detect and scale sweetness of reference sucrose solutions containing between 10 g to 150 g sucrose/kg (1 to 15 wt % aqueous sucrose solution). A sweetener composition containing one or more glycosides are then tasted at a series of dilutions to determine the concentration of the sweetener composition that is as sweet as a given sucrose reference. For example, if a sweetened solution is as sweet as a 5 wt % sucrose solution, then the sweetened solution is assigned a SEV of 5.
SEV measurements for SG101-104 (listed above and in Table 12) were performed according to the following procedure: A trained sensory panel evaluated solutions of SG101, SG102, SG103, and SG104 at the concentrations specified. Solutions were made in a citric acid buffer at pH=3.0. All solutions were heated to 55° C. for 12 minutes to ensure that all the glycoside material was completely dissolved. The solutions were allowed to cool to room temperature before serving to the panelists. Each solution was given a random 3-digit code and was served to the panelists in random order. Panelists dispensed 2 mL of each solution into their mouths from a pipette. The panelists were then asked to rate the “sweetness intensity” of the solutions and mark their responses on an un-anchored, 15 cm line scale. The length of the line corresponds to the scale values (1-15) on which the participants were trained. The panelists' responses were measured, compiled, and averaged for each sample. Each sample was tested by approximately 12 trained panelists.

For `C=C1C[C@@]23CC[C@H]4[C@@](C)(CCC[C@@]4(C)C(=O)O[C@@H]4O[C@H](CO)[C@@H](O)[C@H](O[C@@H]5O[C@H](CO)[C@@H](O)[C@H](O)[C@H]5O)[C@H]4O[C@@H]4O[C@H](CO)[C@@H](O)[C@H](O)[C@H]4O)[C@@H]2CC[C@]1(O[C@@H]1O[C@H](CO)[C@@H](O)[C@H](O[C@@H]2O[C@H](CO)[C@@H](O)[C@H](O)[C@H]2O)[C@H]1O[C@@H]1O[C@H](CO)[C@@H](O)[C@H](O)[C@H]1O)C3` [Reb M, rebaudioside M], the “aqueous solubility in words” value in data set [1] was “poor aqueous solubility and dissolution qualities in beverage formulations”. Also, the Sensory comments result in data set [2] is recorded as “Nice subtle sweetness, feels like sugar, but with long linger very good”; in data set [7] (200 ppm in water, Test A), “Typical mid-sweet for Reb M, fairly well rounded, quick rise, some tailing, some bitter”; in data set [7] (400 ppm in water, Test A), “Higher sweet, faster onset than 200 ppm, cotton candy sweetness-skews to HFCS longer linger, sharper bitterness—but not oppressing sweetness”; in data set [7] (Reb M alone in water, Test B, concentration not stated at the comment) it was “clean, sweet, spiky sweetness”. Besides, the Perimeter in data set [3] turned out to be 58.3. The compound also registered an AUC in data set [3] (area under the curve (total)) of 132.9a. In addition, the “Plateau Time” value in data set [3] (duration of peak intensity) came to 4.1a. For the same compound, the Tdur in data set [3] (duration time of sensation) came to 35.4a. The same compound displayed an Imax in data set [3] (peak intensity, 12 panelists, 3 replicates) of 5.9. In data set [3] (post-peak area under the curve), this compound gave an APostMax of 90.0a. In data set [3] (pre-peak area under the curve), the APreMax is on record as 43.0. Also, the “Rate Decrease” value in data set [3] (slope after peak intensity) was −0.2a. The “Rate Increase” value in data set [3] (slope before peak intensity) was 0.7. For the same compound, the Tonset in data set [3] (time sensation is first perceived) was 0.8. For the same compound, the Text in data set [3] (time to extinction) worked out at 36.3a. For the same compound, the “instantaneous solubility at stated concentration” value in data set [4] (0.10%) was “soluble”; in data set [4] (0.13%) it was “soluble”; in data set [4] (0.20%), “insoluble”; in data set [4] (0.30%) it was “insoluble”. Besides, the “improvement (increase) in instantaneous solubility over the pure rebaudioside” value in data set [4] (in the presence of compounds SG101-104 (fermentation derived composition)) was > 60%. Besides, the “concentration of the rebaudioside in the instantaneously soluble 0.37% solution of the fermentation composition” value in data set [4] was 0.21%; in data set [4] (listed as reb M), “about 0.21%”. The instantaneous solubility entry in data set [4] is on record as “at least 0.13%”; in data set [4] (listed as rebaudioside M), “about 0.13%”. Moreover, the sweetness characteristics result in data set [5] is “higher sweetness intensity and is more potent than other steviol glycosides”. The “equilibrium solubility at stated concentration” value in data set [6] (0.10%) is listed as “soluble”; in data set [6] (0.13%), “soluble”; in data set [6] (0.20%), “soluble”; in data set [6] (0.30%), “insoluble”. In addition, the equilibrium solubility result is reported as “at least 0.2%” in data set [6] and “about 0.2%” in data set [6] (listed as rebaudioside M).

As to `C=C1C[C@@]23CCC4[C@](C)(C(=O)OC5OC(CO)C(O)C(O)C5OC5OC(CO)C(O)C(O)C5O)CCC[C@@]4(C)[C@@H]2CC[C@]1(OC1OC(COC2OC(CO)C(O)C(O)C2O)C(O)C(OC2OC(CO)C(O)C(O)C2O)C1OC1OC(CO)C(O)C(O)C1O)C3` (stereo partly shown) [SG101], the values for the SEV in data set [8] (200 ppm), in data set [8] (400 ppm) and in data set [8] (500 ppm) were 0.6, 1.2 and 1.6, respectively. Besides, the Sensory comments result is “Zero sweetness, seems less than in water, naked tea” in data set [2] and “not sweet, astringent, cloying—mouth drying on the tongue” in data set [7] (200 ppm in water, Test A).

`C=C1C[C@@]23CCC4[C@](C)(C(=O)OC5OC(CO)C(O)C(OC6OC(CO)C(O)C(O)C6O)C5OC5OC(CO)C(O)C(O)C5O)CCC[C@@]4(C)[C@@H]2CC[C@]1(OC1OC(COC2OC(CO)C(O)C(O)C2O)C(O)C(OC2OC(CO)C(O)C(O)C2O)C1OC1OC(CO)C(O)C(O)C1O)C3` (stereo partly shown) [SG102]: the SEV in data set [8] (200 ppm) is given as 1.0; in data set [8] (400 ppm), 1.5. In addition, the Sensory comments entry in data set [2] is listed as “Not sweet, slightly less astringent, some additional roundedness”; in data set [7] (200 ppm in water, Test A) it was “a bit sweeter than SG101, sweetness does have quick onset”.

For `C=C1C[C@@]23CCC4[C@](C)(C(=O)OC5OC(CO)C(O)C(O)C5OC5OC(CO)C(O)C(O)C5O)CCC[C@@]4(C)[C@@H]2CC[C@]1(OC1OC(CO)C(O)C(OC2OC(COC4OC(CO)C(O)C(O)C4O)C(O)C(O)C2O)C1OC1OC(CO)C(O)C(O)C1O)C3` (stereo partly shown) [SG103], in data set [8], the Sucrose equivalent value turned out to be 4.8 and the “relative sweetness scale- sucrose = 1” value was 192X. In addition, the Sensory comments entry in data set [2] was “Slower onset than Reb M by itself, not as sweet as Reb M, slightly more licorice aftertaste”. For the same compound, in data set [7] (200 ppm in water, Test A), the Sensory comments entry is reported as “as sweet or sweeter than 200 ppm Reb M, more sucrosey, sugary quality characteristics (high fructose corn syrup (HFCS), cotton candy notes) are reminiscent of Reb M at 400 ppm but not as sweet, “fuller” feeling”.

In the case of `C=C1C[C@@]23CCC4[C@](C)(C(=O)OC5OC(CO)C(O)C(OC6OC(CO)C(O)C(O)C6O)C5OC5OC(CO)C(O)C(O)C5O)CCC[C@@]4(C)[C@@H]2CC[C@]1(OC1OC(CO)C(O)C(OC2OC(COC4OC(CO)C(O)C(O)C4O)C(O)C(O)C2O)C1OC1OC(CO)C(O)C(O)C1O)C3` (stereo partly shown) [SG104], the Sucrose equivalent value in data set [8] turned out to be 6.5. Besides, the “relative sweetness scale- sucrose = 1” value in data set [8] came to 260X. The Sensory comments result in data set [2] is recorded as “As sweet as Reb M, very sucrosey compared to Reb M, a little back end licorice”; in data set [7] (200 ppm in water, Test A) it was “as sweet or sweeter than 200 ppm Reb M, more rounded sweetness, enhanced sugar quality effects (sensations reminiscent of sucrose, vanilla), “fuller” feeling”.

The record behind these values is US20220304349A1, “Steviol Glycoside Compositions for Oral Ingestion or Use” (CARGILL, Incorporated, priority 2016, published 2022).
